Our source for the Kd values is PMC11904984, “The Gut Microbiota‐Xanthurenic Acid‐Aromatic Hydrocarbon Receptor Axis Mediates the Anticolitic Effects of Trilobatin” (Advanced Science, 2025).

This assay concerns the target T1, aromatic hydrocarbon receptor (AhR) (Homo sapiens, UniProt P35869).
T1 construct: His-tagged recombinant human AhR (MST); recombinant human AhR (SPR)
T1 sequence (P35869 11-848): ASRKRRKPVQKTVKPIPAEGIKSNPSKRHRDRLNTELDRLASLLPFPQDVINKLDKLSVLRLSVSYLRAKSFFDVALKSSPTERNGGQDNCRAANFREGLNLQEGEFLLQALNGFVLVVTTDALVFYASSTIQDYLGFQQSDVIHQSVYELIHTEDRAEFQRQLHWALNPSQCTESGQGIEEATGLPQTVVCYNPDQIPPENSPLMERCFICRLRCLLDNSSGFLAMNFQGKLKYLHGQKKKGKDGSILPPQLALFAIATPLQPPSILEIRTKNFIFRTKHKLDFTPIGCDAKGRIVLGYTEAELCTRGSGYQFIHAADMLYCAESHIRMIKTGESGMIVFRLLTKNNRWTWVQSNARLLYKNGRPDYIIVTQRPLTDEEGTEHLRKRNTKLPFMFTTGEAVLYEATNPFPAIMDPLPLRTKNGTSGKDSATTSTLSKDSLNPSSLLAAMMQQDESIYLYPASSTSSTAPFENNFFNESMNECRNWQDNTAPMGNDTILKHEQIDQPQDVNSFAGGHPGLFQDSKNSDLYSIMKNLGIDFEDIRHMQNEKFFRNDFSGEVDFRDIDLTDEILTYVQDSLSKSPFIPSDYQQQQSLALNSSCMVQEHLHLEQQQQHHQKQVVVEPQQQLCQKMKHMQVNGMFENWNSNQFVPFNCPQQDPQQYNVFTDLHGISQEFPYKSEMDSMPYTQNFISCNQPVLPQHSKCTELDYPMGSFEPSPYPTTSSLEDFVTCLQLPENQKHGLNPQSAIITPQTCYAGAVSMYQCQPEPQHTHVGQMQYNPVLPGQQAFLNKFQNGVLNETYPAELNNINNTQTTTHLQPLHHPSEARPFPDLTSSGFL
Put plainly: SPR (Biacore, CM5 chip, immobilized AhR); also MST, KD […]. It is filed as binding. (In general: In SPR one partner is held on a chip, and binding of the other changes the refractive index at the surface.)

The molecule `O=C(CCc1ccc(O)cc1)c1c(O)cc(O[C@@H]2O[C@H](CO)[C@@H](O)[C@H](O)[C@H]2O)cc1O` [TLB, Trilobatin] yielded an equilibrium dissociation constant (Kd) of 10.3 µM. In other words, the double-digit micromolar range.

In general, Kd refers to the equilibrium constant for the complex coming apart. Higher therefore signals lower affinity.
